The numbers were not newly measured in patent US20240361407A1, “SYSTEMS AND METHODS FOR GENERATION OF HYPERPOLARIZED MATERIALS” (priority 2021, published 2024), which cites them from elsewhere.

For the series the following is noted: aqueous solution.

In brackets after ≈: the same amount, converted by molar mass.

One may read the solubility as the dissolved amount per volume that the medium holds. Turning to `O=C(O)/C=C/C(=O)O` [fumaric acid], the solubility is 60 mM (≈ 6960 µg/mL).
